Numbers after ± are expanded uncertainties.
Tests used:
[1] = 101 kPa, Liquid, Vibrating tube method
[2] = xn = mol fraction of the nth substance listed; conditions: 101 kPa, Liquid, Vibrating tube method, x2 = 0

OCC(O)CO [glycerol]
[1]
Conditions	mass density [kg/m3]
278.15 K	1270.87 ± 0.22
288.15 K	1264.4 ± 0.22
293.15 K	1260.99 ± 0.22
298.15 K	1257.91 ± 0.22
308.15 K	1251.66 ± 0.22
323.15 K	1242.11 ± 0.21
333.15 K	1235.71 ± 0.21
348.15 K	1225.79 ± 0.21

O [water]
[1]
Conditions	mass density [kg/m3]
274.15 K	999.9 ± 0.1
275.15 K	999.94 ± 0.1
276.15 K	999.96 ± 0.1
277.15 K	999.97 ± 0.12
278.15 K	999.96 ± 0.1
279.15 K	999.94 ± 0.1
280.15 K	999.9 ± 0.1
281.15 K	999.85 ± 0.1
282.15 K	999.78 ± 0.1
283.15 K	999.7 ± 0.1
323.15 K	988.03 ± 0.11
333.15 K	983.19 ± 0.11
348.15 K	974.84 ± 0.11

O [water] + OCC(O)CO
[2]
Conditions	mass density [kg/m3]
274.15 K	999.9 ± 0.1
275.15 K	999.94 ± 0.1
276.15 K	999.96 ± 0.1
277.15 K	999.97 ± 0.12
278.15 K	999.96 ± 0.1
279.15 K	999.94 ± 0.1
280.15 K	999.9 ± 0.1
281.15 K	999.85 ± 0.1
282.15 K	999.78 ± 0.1
283.15 K	999.7 ± 0.1
323.15 K	988.03 ± 0.11
333.15 K	983.19 ± 0.11
348.15 K	974.84 ± 0.11

Source: the NIST ThermoML archive (doi:10.1016/j.tca.2013.07.012)
